Test results from patent publication US5646156A, “Inhibition of eosinophil activation through A3 adenosine receptor antagonism” (Merck & Co., Inc., priority 1994, dated 1997).
Several values for one entry are separate records, joined by “and”; a condition that tells them apart may be missing. Equal entries are not always repeated. Entries after “also recorded” stand apart in the source; their conditions may differ. Where two headings read alike, the source gives them in different places.

What was measured:
[1] = tested on: rat A3 adenosine receptor; conditions: reported in literature; cited from earlier work
[2] = tested on: human adenosine receptors (all subtypes); conditions: cited from earlier work
[3] = Radioligand binding to membranes from CHO cells (non-transfected / non-specific)
asthmatics = conditions: cited from earlier work; for bronchoconstriction in asthmatics: not nonasthmatics
[4] = tested on: A3 adenosine receptor transcript, human eosinophils; assay: A3 adenosine receptor transcript expression (RT-PCR) in GM-CSF stimulated eosinophils; assay type: cell-based; conditions: GM-CSF (150 pM, 16 hours)
Description: (§1) Eosinophils and neutrophils (80-99% purity) were purified from human peripheral blood by an immunomagnetic procedure described by Hansel et al. (1991) J. Immunol. Methods 145: 105-110. Isolated cells (2-2.6×10^6 cells/mL) were cultured in the presence of 150 pM human recombinant granulocyte-macrophage colony stimulating factor, GM-CSF (Calbiochem, San Diego, Calif.) for 16 hours in RPMI with 10% fetal calf serum, at 37° C. in 5% CO2. Total RNA was extracted by the guanidinium isothiocyanate method (Chirgwin, J. M., et al, (1979) Biochemistry 18:5294-5299) from approximately 1.3×10^7 human eosinophils (+) or (-) GM-CSF stimulation. […]
(§2) Human adenosine receptor subtype transcript expression was determined using the polymerase chain reaction (PCR). […]
(§3) Ten μl of each PCR amplification reaction was elecrophoresed on a 1.4% agarose gel and alkaline blotted to Zeta-Probe GT membranes according to the manufacturer's protocol (BIO-RAD, Hercules, Calif.). […] The presence of A2a, A2b and A3 receptor PCR products were detected from normal and GM-CSF treated eosinophils.
(§4) PCR reaction products were quantitated using a Molecular Dynamics Phosphorimager and ImageQuant software. […] Quantitation of GAPDH was used to correct message level differences in the (+) or (-) GM-CSF stimulated human eosinophils. […]

[5] = tested on: A2b adenosine receptor transcript, human eosinophils; assay: A2b adenosine receptor transcript expression (RT-PCR) in GM-CSF stimulated eosinophils; assay type: cell-based; conditions: GM-CSF (150 pM, 16 hours)
Description: as §1, §2, §3, §4

[6] = tested on: A2a adenosine receptor transcript, human eosinophils; assay: A2a adenosine receptor transcript expression (RT-PCR) in GM-CSF stimulated eosinophils; assay type: cell-based
Description: as §1, §2, §3, §4

[7] = tested on: A1 adenosine receptor transcript, human eosinophils; assay: A1 adenosine receptor transcript expression (RT-PCR) in GM-CSF stimulated eosinophils; assay type: cell-based
Description: as §1, §2, §3, §4

[8] = target: T1, human A3 adenosine receptor (Homo sapiens, UniProt P0DMS8); assay: Competition binding vs 125I-ABA, membranes of CHO cells stably expressing HS-21a (human A3 adenosine receptor); conditions: for Ki: competition with 125I-ABA, CHO membranes, human A3
T1 construct: clone HS-21a contained the complete open reading frame corresponding to the human homolog of the rat A3 adenosine receptor; expressed in transfected cells; host or cells: CHO cells, stably transfected (pCMV5-A3; pSVL and pREP vectors are also described)
T1 sequence (P0DMS8 1-318): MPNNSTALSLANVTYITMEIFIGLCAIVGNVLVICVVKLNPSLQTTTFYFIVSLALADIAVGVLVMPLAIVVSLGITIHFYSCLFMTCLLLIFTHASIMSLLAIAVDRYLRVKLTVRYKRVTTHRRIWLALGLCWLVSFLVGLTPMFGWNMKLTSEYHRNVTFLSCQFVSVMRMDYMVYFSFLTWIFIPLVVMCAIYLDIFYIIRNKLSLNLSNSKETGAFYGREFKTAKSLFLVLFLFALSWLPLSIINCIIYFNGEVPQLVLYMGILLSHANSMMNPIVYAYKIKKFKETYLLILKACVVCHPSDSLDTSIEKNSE
Description: Pellets were resuspended in 5 mM Hepes, pH 7.4/5 mM MgCl2 /0.1 mM benzamidine/0.1 mM PMSF at a protein concentration of 1-2 mg/mL and were incubated with adenosine deaminase (Boehringer Mannheim), 2 U/mL at 37° C. for 20 minutes. […] The assay was terminated by rapid filtration and three washes with ice-cold binding buffer on a Skatron harvester equipped with a receptor binding filtermat (Skatron Instruments, INC). […] Nonspecific binding was measured in the presence of 1 μM I-ABA. […] Binding data were analyzed and competition curves were constructed by use of the nonlinear regression curve fitting program Graph PAD InPlot, Version 3.0 (Graph Pad Software, San Diego).

[9] = target: T1, human A3 adenosine receptor; conditions: potencies disclosed by Salvatore et al.; cited from earlier work
[10] = target: T1, human A3 adenosine receptor; conditions: antagonist potency in cAMP assay; disclosed by Salvatore et al.; cited from earlier work
[11] = target: T1, human A3 adenosine receptor; assay: Saturation binding of 125I-ABA to membranes of CHO cells stably expressing HS-21a (human A3 adenosine receptor); conditions: for prevention of specific binding of 125I-ABA: 1 mM nonradioactive I-ABA (so in the source) or 400 μM NECA
[12] = target: T1, human A3 adenosine receptor; assay: Inhibition of forskolin-stimulated cAMP accumulation, CHO cells stably expressing HS-21a (human A3 adenosine receptor); assay type: cell-based
Description: (§5) Determinations were made on stably transfected CHO cells in suspension as described (Linden et al., (1993) Mol. Pharm. 44:524-532). Supernatants (500 μL) were acetylated and acetylcyclic AMP was measured by automated radioimmunoassay (Hamilton, B. R. and Smith, D. O. (1991) J. Physiol. (Lond.) 432, 327-341). Antagonist dissociation constants were estimated from pA2 values as described by Schild (1957) Pharm. Rev. 9, 242-246).
(§6) The ability of the HS-21a receptor stably expressed in CHO cells to couple to the cAMP regulatory system was measured using adenosine as an agonist. […] In the absence of forskolin, adenosine had no effect on the cAMP levels. In non-transfected CHO cells, adenosine had no effect on cAMP levels when measured with or without forskolin treatment.

[13] = tested on: non-transfected CHO cells; assay: cAMP levels in non-transfected CHO cells; assay type: cell-based; conditions: with or without forskolin
Description: as §5, §6

eosinophils = assay: Induction of eosinophil activation in animals; conditions: in vivo
activated mast cells = conditions: cited from earlier work
[14] = tested on: cytokine activated eosinophils; assay: Treatment of cytokine activated eosinophils (hypersensitivity to adenosine, degranulation, effector function); assay type: cell-based
[15] = target: sheep A3 adenosine receptor; conditions: cited from earlier work
[16] = tested on: sheep A3 adenosine receptor; conditions: CHO cells; cited from earlier work
[17] = 125I-ABA, HS-21a stable CHO cell membranes

Molecule: CCCn1c(=O)c2[nH]c(C3CCCC3)nc2n(CCC)c1=O [DPCPX, 1,3-dipropyl-8-cyclopentylxanthine]
- binding to rat A3 receptor [1]: not to bind
- blockade of human adenosine receptor subtypes [2]: blocked

Molecule: Nc1ccc(CCNc2ncnc3c2ncn3[C@@H]2O[C@H](CO)[C@@H](O)[C@H]2O)cc1[125I] [^125 I-APNEA, N^6-2-(4-amino-3-^125 iodophenyl)ethyladenosine]
- non-specific binding to CHO cell membranes ([3]; 125I-APNEA, preliminary experiments): high non-specific

Molecule: Cn1c(=O)c2[nH]cnc2n(C)c1=O [theophylline]
- antagonism of adenosine-induced bronchoconstriction (asthmatics): antagonized

Molecule: GM-CSF: human recombinant granulocyte-macrophage colony stimulating factor, GM-CSF (Calbiochem, San Diego, Calif.)
- up-regulation of A3 transcripts [4]: ~10 fold
- up-regulation of A2b transcripts [5]: ~3 fold and 3 to 4 fold
- A2a transcript / message level change [6]: no change; also recorded: remained unchanged
- A1 transcript expression [7]: no A1 products were observed; also recorded: remained unchanged

Molecule: CCCn1c(=O)c2[nH]c(-c3ccc(C=CC(=O)O)cc3)nc2n(CCC)c1=O [BW-A1433, 1,3-dipropyl-8-(4-acrylate)phenylxanthine]
- Ki [8]: 55 nM
- BINDING pKi [9]: 7.26
- cAMP pKi [10]: 7.0
- blockade of human adenosine receptor subtypes [2]: blocked

Molecule: CCNC(=O)[C@H]1O[C@@H](n2cnc3c(N)ncnc32)[C@H](O)[C@@H]1O [NECA, N-ethylcarboxamidoadenosine]
- prevention of specific binding of 125I-ABA [11]: prevented

Molecule: Nc1ncnc2c1ncn2[C@@H]1O[C@H](CO)[C@@H](O)[C@H]1O [adenosine]
- inhibition at 10 µM ([12]; CHO, read-out: inhibition of forskolin-stimulated increase in cAMP): 30%
- effect on cAMP levels in absence of forskolin ([12]; HS-21a CHO cells, no forskolin): no effect
- effect on cAMP levels in non-transfected CHO cells [13]: no effect
- eosinophil activation in animals (eosinophils): induce eosinophil activation
- bronchoconstriction in asthmatics (asthmatics; listed as Adenosine): induces bronchoconstriction in asthmatics but not in normal individuals; also recorded: produces bronchoconstriction in asthmatics but not in nonasthmatics
- bronchoconstriction in asthmatics (asthmatics): produces bronchoconstriction
- release of histamine from activated mast cells (activated mast cells): potentiate

Molecule: CCCn1c(=O)c2[nH]c(-c3ccc(OCC(=O)NCCN)cc3)nc2n(CCC)c1=O [XAC, xanthine amine cogener]
- binding to rat A3 receptor [1]: not to bind
- blockade of human adenosine receptor subtypes [2]: blocked

Molecule: CCCn1c(=O)c2[nH]c(-c3ccc(OCC(=O)O)cc3)nc2n(Cc2ccc(N)c(I)c2)c1=O [I-ABOPX, 3-(3-iodo-4-aminobenzyl)-8-(4-oxyacetate)phenyl-1-propylxanthine]
- Ki [8]: 18 nM
- affinity for human A3 receptor ([8]; in words): highest affinity antagonist yet reported for A3 adenosine receptors
- hypersensitivity to adenosine, eosinophil degranulation and effector function [14]: blockade of this hypersensitivity and inhibition of eosinophil degranulation and effector function
- cAMP pKi [10]: 8.13
- Ki [15]: 2 nM

Molecule: Nc1nc2c(ncn2[C@@H]2O[C@H](COP(=O)(O)OP(=O)(O)OP(O)(O)=S)[C@@H](O)[C@H]2O)c(=O)[nH]1 [GTPγS, guanosine 5'-O-3-thiotriphosphate]
- inhibition at 10 µM ([11]; read-out: reduction of specific binding of 125I-ABA): 56%

Molecule: Nc1ccc(CNc2ncnc3c2ncn3[C@@H]2O[C@H](CO)[C@@H](O)[C@H]2O)cc1I [I-ABA]
- prevention of specific binding of 125I-ABA [11]: prevented
- inhibition of forskolin-stimulated cyclic AMP accumulation compared with NECA and other agonists (PIA and CPA) ([12]; CHO cells, human A3): only about half as much inhibition
- agonist type for lowering cyclic AMP ([12]; CHO cells, human receptor): partial agonist
- shift of NECA dose response curve to lower cyclic AMP ([12]; NECA in presence of I-ABA): fight-shifted
- agonist type for lowering cyclic AMP [16]: full

Molecule: Nc1ccc(CNc2ncnc3c2ncn3[C@@H]2O[C@H](CO)[C@@H](O)[C@H]2O)cc1[125I] [^125 I-ABA, N^6-(4-amino-3-^125 iodobenzyl)adenosine]
- Bmax [11, 17]: 258 fmol/mg protein
- Hill coefficient [11, 17]: 0.99
- Kd ([11]; 125I-ABA, HS-21a stable CHO cell membranes, read-out: dissociation constant): 10 nM
- specific binding to non-transfected CHO cell membranes ([3]; 125I-ABA): No specific binding
